Values quoted from earlier work, collected in PMC12846068, “Insights into Transport Function of the Murine Organic Anion-Transporting Polypeptide OATP1B2 by Comparison with Its Rat and Human Orthologues” (Toxics, 2025).

How the values were obtained:
[1] = target: T1, hOATP1B3 (Homo sapiens, UniProt Q9NPD5); details: read-out: IC50 for OATP1B3; cited from earlier work
T1 sequence (Q9NPD5 1-702): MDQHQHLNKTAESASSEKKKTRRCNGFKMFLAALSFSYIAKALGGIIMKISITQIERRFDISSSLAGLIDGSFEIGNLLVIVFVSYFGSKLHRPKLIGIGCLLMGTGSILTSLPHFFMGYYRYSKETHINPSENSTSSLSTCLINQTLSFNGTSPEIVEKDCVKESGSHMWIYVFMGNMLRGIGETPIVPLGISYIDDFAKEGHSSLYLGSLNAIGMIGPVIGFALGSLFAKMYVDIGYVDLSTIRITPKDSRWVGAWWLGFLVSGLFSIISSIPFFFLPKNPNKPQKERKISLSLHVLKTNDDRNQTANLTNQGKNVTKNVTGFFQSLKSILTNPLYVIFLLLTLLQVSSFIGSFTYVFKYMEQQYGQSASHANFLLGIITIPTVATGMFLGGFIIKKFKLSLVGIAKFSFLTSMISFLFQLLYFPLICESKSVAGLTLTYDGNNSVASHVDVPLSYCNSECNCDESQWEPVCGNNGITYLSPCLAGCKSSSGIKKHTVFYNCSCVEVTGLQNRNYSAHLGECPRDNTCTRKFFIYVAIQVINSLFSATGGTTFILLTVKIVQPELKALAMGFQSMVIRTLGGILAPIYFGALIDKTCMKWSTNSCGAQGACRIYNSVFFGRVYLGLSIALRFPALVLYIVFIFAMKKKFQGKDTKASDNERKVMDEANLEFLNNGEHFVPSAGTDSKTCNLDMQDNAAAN

[2] = target: T1, hOATP1B3; design: expressed in transfected cells; host or cells: HEK-293, stably transfected; details: read-out: Km as substrate of hOATP1B3; cited from earlier work

CC(C)CN(C[C@@H](O)[C@H](Cc1ccccc1)NC(=O)O[C@H]1CCOC1)S(=O)(=O)c1ccc(N)cc1 [Amprenavir, amprenavir]
IC50 [1]: 19.1 µM

CC(C)c1nc(N(C)S(C)(=O)=O)nc(-c2ccc(F)cc2)c1/C=C/[C@@H](O)C[C@@H](O)CC(=O)O [Rosuvastatin, rosuvastatin]
Km [2]: 14.2 µM
